{
  "source": "patent US6352703B1",
  "about": "“Compositions and methods for detecting and killing termites” (Board of Supervisors of Louisiana State University and …, priority 1997, dated 2002)",
  "key": {"[1]": {"system": "Mucor spp. fungus", "assay": "Antifungal filter paper disk test, trial 2 (cornmeal agar, sealed plates)", "assay_type": "cell-based", "experimental": "A second trial was conducted with filter papers treated with naphthalene, BHT, or 2,6-di-t-butyl-4-methyl-phenol (“DBP”). A fungal suspension was prepared as in the first trial. Spore concentrations were determined with a counting chamber (Petroff-Hauser, Hauser Scientific Partnership, Horsham, Pa.). Concentrations were adjusted to approximately 10^7 spores/mL. In the first trial fungus grew on SDA quickly, forming a thick mat that soon filled the entire petri dish. Therefore, in the second trial cornmeal agar (CMA, Difco Laboratories, Detroit, Mich.) was used to slow the growth of the fungus during the six-day observation period. A thin layer of the spore suspension was spread over the surface of each of 24 cornmeal agar plates using a turntable and bent glass rod, as previously described.\n(§1) Filter paper disks were treated with naphthalene, BHT, or DBP at rates of 2 μg, 20 μg, or 200 μg, prepared as in the first trial. On each plate were placed four filter paper disks spaced equidistant from one another (one disk containing each of the three application rates of one of the test compounds, and one disk containing only the hexane control). Each plate was then covered and sealed with parafilm to reduce the release of volatile compounds. The concentration of naphthalene in the headspace was 0.04 μg/cm^3; except in trial 3 below, in which the concentration was 34.6 μg/cm^3, about 700 times the concentration we have observed in termite nest materials. The growth of fungus on and around each filter paper disk was recorded three, four, and five days after treatment. The experiment was then repeated, increasing the rates of naphthalene, BHT, and DBP to 200 μg, 600 μg, and 1000 μg (trial 3).\n(§2) Fungal growth on each filter paper disk was recorded by making tracings of the disks, inking in areas with visible fungal growth. The fraction of each disk covered by fungus was measured by making photocopy enlargements of these drawings, cutting out the enlarged disks, weighing the entire circle, cutting out the inked areas of the circle (corresponding to fungal growth), and weighing the latter. The fraction of each circle covered with fungus was then calculated as the ratio of these weights. (The weight of the photocopy toner was negligible.)\n(§3) Coverage of filter paper disks was analyzed by the ANOVA procedure (SAS Institute, Version 6.11, Cary, N.C.). Tukey's Studentized Range (HSD) Test was used for comparison of mean separations (α=0.05)."}, "[2]": {"system": "C. formosanus", "settings": "in vivo"}, "[3]": {"system": "imported red fire ant, Solenopsis invicta Buren", "assay": "Effect of naphthalene on ants (tolerance comparison)", "assay_type": "in vivo", "settings": "naphthalene concentrations causing no visible effect on termites"}, "[4]": {"system": "Mucor spp. fungus", "assay": "Antifungal filter paper disk test, trial 3 (cornmeal agar, sealed plates, increased rates)", "assay_type": "cell-based", "experimental": "A second trial was conducted with filter papers treated with naphthalene, BHT, or 2,6-di-t-butyl-4-methyl-phenol (“DBP”). A fungal suspension was prepared as in the first trial. Spore concentrations were determined with a counting chamber (Petroff-Hauser, Hauser Scientific Partnership, Horsham, Pa.). Concentrations were adjusted to approximately 10^7 spores/mL. In the first trial fungus grew on SDA quickly, forming a thick mat that soon filled the entire petri dish. […] A thin layer of the spore suspension was spread over the surface of each of 24 cornmeal agar plates using a turntable and bent glass rod, as previously described.\nas §1, with “The growth of fungus on and around each filter paper disk was recorded three, four, and five days after treatment.” left out\nas §2, §3"}, "[5]": {"system": "Mucor spp. fungus", "assay": "Antifungal filter paper disk test, trial 1 (Sabouraud dextrose agar)", "assay_type": "cell-based", "experimental": "Mucor was isolated from a Formosan termite nest in our laboratory, a nest originally collected from a cottonwood tree in New Orleans, La. The fungus comprised a white mat that covered large areas of the nest that had been exposed to air and water. Fungus was scraped from the nest and suspended in distilled, de-ionized water with a Pasteur pipette. This suspension was streaked on Sabouraud dextrose agar (“SDA”) (Difco Laboratories, Detroit, Mich.) in 100×15 mm plates containing 20 mL SDA. Pure cultures were obtained from individual colonies on these plates as needed. Cultures were maintained on SDA plates in a 27° C. incubator without light until used.\nFilter paper disks (Whatman #1, 1.5 cm) were treated with naphthalene, butylated hydroxytoluene (BHT), dioctyl phthalate, or adipic dioctyl ester, at rates of 2 μg, 20 μg, or 200 μg, dissolved in 100 μL hexane. Controls were treated with hexane alone. For each treatment, just prior to testing for antifungal properties, 1 mL of the hexane solution and ten filter paper disks were placed in a vial, and N2 was used to evaporate the hexane.\nA suspension was prepared by scraping Mucor conidia (spores) from the culture plates, and mixing into distilled, deionized water with a Pasteur pipette. A thin layer of this suspension was spread over the surface of each of 130 SDA plates by placing each plate onto an inoculation turntable (Fisher Scientific, Hampton, N.H.), pipetting 0.2 mL of the suspension into the center of the plate, spinning the turntable, and spreading the suspension onto the agar with a bent glass rod. The plates were allowed to dry for two hours. A treated filter paper disk was then placed in the center of each plate (10 plates/treatment), and the plates were incubated at 27° C. The extent to which each filter paper disk was covered by fungus was determined by visual inspection (by the method described in greater detail below) after four, five, and six days.\nas §2, §3"}, "[6]": {"system": "Formosan termites", "assay": "Feeding bioassay", "assay_type": "in vivo, Coptotermes formosanus", "settings": "ergosterol standard", "experimental": "Sterols identified include 3-β-dihydrocholesterol; (24s)-stigmast-5-en-3-ol; and methyl(3-β,5-α)ergostan-3-ol. […] The bioassay was conducted according to the general procedures of U.S. application Ser. No. 08/243,950, filed May 17, 1994."}, "[7]": {"settings": "trial 2, 0 μg disk (hexane only) on the same sealed plate as the compound's treated disks"}, "[8]": {"settings": "trial 3, 0 μg disk (hexane only) on the same sealed plate as the compound's treated disks"}},
  "data": [
    {"smiles": "c1ccc2ccccc2c1", "note": "[Naphthalene, naphthalene]", "values": [
      {"measurement": "Fraction Covered, Day 3 (mean percentage of filter paper disk surface covered by fungus)", "setting": "[1]; [7]", "result": 98, "unit": "%"},
      {"measurement": "Fraction Covered, Day 4 (mean percentage of filter paper disk surface covered by fungus)", "setting": "[1]; [7]", "result": 99, "unit": "%"},
      {"measurement": "Fraction Covered, Day 5 (mean percentage of filter paper disk surface covered by fungus)", "setting": "[1]; [7]", "result": 95, "unit": "%"},
      {"measurement": "Fraction Covered, Day 3 (mean percentage of filter paper disk surface covered by fungus)", "setting": "[1]; trial 2, rate 2 μg per disk", "result": 100, "unit": "%"},
      {"measurement": "Fraction Covered, Day 4 (mean percentage of filter paper disk surface covered by fungus)", "setting": "[1]; trial 2, rate 2 μg per disk", "result": 99, "unit": "%"},
      {"measurement": "Fraction Covered, Day 5 (mean percentage of filter paper disk surface covered by fungus)", "setting": "[1]; trial 2, rate 2 μg per disk", "result": 100, "unit": "%"},
      {"measurement": "Fraction Covered, Day 3 (mean percentage of filter paper disk surface covered by fungus)", "setting": "[1]; trial 2, rate 20 μg per disk", "result": 98, "unit": "%"},
      {"measurement": "Fraction Covered, Day 4 (mean percentage of filter paper disk surface covered by fungus)", "setting": "[1]; trial 2, rate 20 μg per disk", "result": 98, "unit": "%"},
      {"measurement": "Fraction Covered, Day 5 (mean percentage of filter paper disk surface covered by fungus)", "setting": "[1]; trial 2, rate 20 μg per disk", "result": 99, "unit": "%"},
      {"measurement": "Fraction Covered, Day 3 (mean percentage of filter paper disk surface covered by fungus)", "setting": "[1]; trial 2, rate 200 μg per disk", "result": 100, "unit": "%"},
      {"measurement": "Fraction Covered, Day 4 (mean percentage of filter paper disk surface covered by fungus)", "setting": "[1]; trial 2, rate 200 μg per disk", "result": 100, "unit": "%"},
      {"measurement": "Fraction Covered, Day 5 (mean percentage of filter paper disk surface covered by fungus)", "setting": "[1]; trial 2, rate 200 μg per disk", "result": 100, "unit": "%"},
      {"measurement": "Tolerance of C. formosanus to naphthalene compared with S. invicta", "setting": "[2]", "result": "significantly higher tolerance"},
      {"measurement": "Visible effect on termites", "setting": "[2]", "result": "no visible effect"},
      {"measurement": "Effect on ants", "setting": "[3]", "result": "paralyzed"},
      {"measurement": "Inhibition of growth of the fungus, comparison among compounds", "setting": "[4]; of the five compounds tested", "result": "most effective at inhibiting the growth of this fungus"},
      {"measurement": "Fraction Covered, Day 3 (mean percentage of filter paper disk surface covered by fungus)", "setting": "[4]; [8]", "result": 0, "unit": "%"},
      {"measurement": "Fraction Covered, Day 4 (mean percentage of filter paper disk surface covered by fungus)", "setting": "[4]; [8]", "result": 0, "unit": "%"},
      {"measurement": "Fraction Covered, Day 5 (mean percentage of filter paper disk surface covered by fungus)", "setting": "[4]; [8]", "result": 0, "unit": "%"},
      {"measurement": "Fungal growth on filter paper disks", "setting": "[4]; trial 3, all naphthalene treatments (0-1000 μg)", "result": "no fungal growth"},
      {"measurement": "Fungal growth on treated disks", "setting": "[4]; trial 3, eight days after treatment", "result": "still free of fungus"},
      {"measurement": "Fungal growth on treated disks", "setting": "[4]; trial 3, fourth day", "result": "still no growth"},
      {"measurement": "Fraction Covered, Day 3 (mean percentage of filter paper disk surface covered by fungus)", "setting": "[4]; trial 3, rate 200 μg per disk", "result": 0, "unit": "%"},
      {"measurement": "Fraction Covered, Day 4 (mean percentage of filter paper disk surface covered by fungus)", "setting": "[4]; trial 3, rate 200 μg per disk", "result": 0, "unit": "%"},
      {"measurement": "Fraction Covered, Day 5 (mean percentage of filter paper disk surface covered by fungus)", "setting": "[4]; trial 3, rate 200 μg per disk", "result": 0, "unit": "%"},
      {"measurement": "Fraction Covered, Day 3 (mean percentage of filter paper disk surface covered by fungus)", "setting": "[4]; trial 3, rate 600 μg per disk", "result": 0, "unit": "%"},
      {"measurement": "Fraction Covered, Day 4 (mean percentage of filter paper disk surface covered by fungus)", "setting": "[4]; trial 3, rate 600 μg per disk", "result": 0, "unit": "%"},
      {"measurement": "Fraction Covered, Day 5 (mean percentage of filter paper disk surface covered by fungus)", "setting": "[4]; trial 3, rate 600 μg per disk", "result": 0, "unit": "%"},
      {"measurement": "Fraction Covered, Day 3 (mean percentage of filter paper disk surface covered by fungus)", "setting": "[4]; trial 3, rate 1000 μg per disk", "result": 0, "unit": "%"},
      {"measurement": "Fraction Covered, Day 4 (mean percentage of filter paper disk surface covered by fungus)", "setting": "[4]; trial 3, rate 1000 μg per disk", "result": 0, "unit": "%"},
      {"measurement": "Fraction Covered, Day 5 (mean percentage of filter paper disk surface covered by fungus)", "setting": "[4]; trial 3, rate 1000 μg per disk", "result": 0, "unit": "%"},
      {"measurement": "Fraction Covered, Day 4 (mean percentage of filter paper disk surface covered by fungus)", "setting": "[5]; trial 1, rate 2 μg per disk", "result": 71, "unit": "%"},
      {"measurement": "Fraction Covered, Day 5 (mean percentage of filter paper disk surface covered by fungus)", "setting": "[5]; trial 1, rate 2 μg per disk", "result": 86, "unit": "%"},
      {"measurement": "Fraction covered, Day 6 (mean percentage of filter paper disk surface covered by fungus)", "setting": "[5]; trial 1, rate 2 μg per disk", "result": 98, "unit": "%"},
      {"measurement": "Fraction Covered, Day 4 (mean percentage of filter paper disk surface covered by fungus)", "setting": "[5]; trial 1, rate 20 μg per disk", "result": 64, "unit": "%"},
      {"measurement": "Fraction Covered, Day 5 (mean percentage of filter paper disk surface covered by fungus)", "setting": "[5]; trial 1, rate 20 μg per disk", "result": 97, "unit": "%"},
      {"measurement": "Fraction covered, Day 6 (mean percentage of filter paper disk surface covered by fungus)", "setting": "[5]; trial 1, rate 20 μg per disk", "result": 100, "unit": "%"},
      {"measurement": "Fraction Covered, Day 4 (mean percentage of filter paper disk surface covered by fungus)", "setting": "[5]; trial 1, rate 200 μg per disk", "result": 90, "unit": "%"},
      {"measurement": "Fraction Covered, Day 5 (mean percentage of filter paper disk surface covered by fungus)", "setting": "[5]; trial 1, rate 200 μg per disk", "result": 92, "unit": "%"},
      {"measurement": "Fraction covered, Day 6 (mean percentage of filter paper disk surface covered by fungus)", "setting": "[5]; trial 1, rate 200 μg per disk", "result": 100, "unit": "%"}
    ]},
    {"smiles": "CC(C)[C@@H](C)/C=C/[C@@H](C)[C@H]1CC[C@H]2C3=CC=C4C[C@@H](O)CC[C@]4(C)[C@H]3CC[C@]12C", "note": "[ergosterol]", "values": [
      {"measurement": "Feeding stimulation", "setting": "[6]", "result": "stimulated the feeding"}
    ]}
  ]
}
